Patent publication US6537267B1, “Method for chronic catheterization of the common bile duct of a laboratory rat” (priority 2001, dated 2003)

Experiment: Determination of maximal biliary ICG excretion rate
Type: in vivo, rat
Method: Bile was obtained through the bile catheter by inserting a 23-gauge infusion set needle (Abbott Laboratories) from which all but 0.5 in of tubing had been removed, and approximately 24 inches of saline-filled PE 60 tubing attached. A sterile 1.5 mL sampling tube was attached to the tubing end, and bile was withdrawn by suspending the sampling tube below the cage using negative pressure. Bile was collected into tared sampling tubes at 5 minute intervals during a 90 minute period during which ICG was infused into the IVC at 50 μg/minute. ICG, 1 mL/h was delivered by a Razel Scientific (Stamford, Conn.) infusion pump with a 3 mL Becton Dickinson (Franklin Lakes, N.J.) syringe.
Bile flow rate was calculated using the net sampling tube weight assuming a bile density of 1 g/mL. A total of 10 μL of bile from each sample tube was aliquoted to determine ICG concentration. The remainder of the bile was infused into the duodenal catheter to maintain enterohepatic circulation of bile acids. Biliary ICG concentrations were measured spectrophotometrically at wavelength 805 nm. Biliary ICG excretion was calculated for each 5 minute interval by multiplying the bile flow rate by the biliary ICG concentration.
To establish a sensitive and reliable measure of hepatic dysfunction, the maximal biliary ICG excretion rate under physiologic conditions was determined. This measure, which detected even minor changes in biliary ICG excretion, was critical to subsequent primary studies. The animals were anesthetized with ketamine (60 mg/kg) and xylazine (5 mg/kg) intramuscularly. […] The blood concentrations and biliary excretion rates of ICG was measured during a constant infusion of ICG at 10, 20, 50, 100, and 200 μg/minute for 90 minutes in 8 rats that served as their own controls for the different doses on separate days. […] Biliary ICG excretion was measured as described above. Aortic blood samples (0.25 mL) were collected every 10 minutes and analyzed for ICG concentration. Following each blood draw, the animals were transfused with an equal volume of blood obtained immediately prior to transfusion from other untreated chronically catheterized rats that were previously designated as donors. […] After an initial 30 minute equilibration period mean biliary ICG excretion remained at a steady state concentration between 30 and 90 minutes of ICG infusion. […] The bile flow rate was unaffected by any of the tested ICG concentrations.

[1] = ICG infusion 100 and 200 μg/minute

- effect of ICG on bile flow rate (any of the tested ICG concentrations (10-200 μg/minute)): unaffected
- equilibration period before steady state biliary ICG excretion (constant ICG infusion): 30 min
Compound: CC1(C)C(/C=C/C=C/C=C/C=C2\N(CCCCS(=O)(=O)O)c3ccc4ccccc4c3C2(C)C)=[N+](CCCCS(=O)(=O)[O-])c2ccc3ccccc3c21 [ICG, Indocyanine green]
- biliary ICG excretion rate between 30 and 90 minutes vs 50 μg/minute [1]: did not yield a greater biliary ICG excretion rate
- mean blood ICG concentrations between 30 and 90 minutes vs 50 μg/minute [1]: significantly increase mean blood ICG concentrations
